This is an account of results in patent US20090239285A1, “TANDEM REAPEAT DNA CONSTRUCTS PRODUCING PROTEINS THAT ATTACK PLANT PATHOGENIC VIRUSES, FUNGI, AND BACTERIA BY DISRUPTING TRANSCRIPTION FACTORS ESSENTIAL FOR REPLICATION THEREOF IN PLANTS” (priority 2008, published 2009).

Data set [1] deals with SV40 transformed BALB-3T3 cells. To be noted: cited from earlier work.
Data set [2] relates to Arabidopsis thaliana. As to conditions: in vivo; cited from earlier work.
Data set [3] addresses T1, recombinant MPS-1 (Homo sapiens, UniProt P42677).
T1 construct: made in house
Put plainly: Gel shift assay and radioactive Zn65 release from recombinant MPS-1. Format: biochemical. To be noted: for zinc dependent binding of recombinant MPS-1 to DNA: gel shift assays. The source says:
MPS-1 is a ubiquitous tumor marker and cell growth stimulator and is described in detail in the inventors' U.S. Pat. No. 5,243,041. MPS-1 has one zinc finger domain of the type CCCC. […] This is detected by a change in the electrophoretic mobility of MPS-1 under non-denaturing conditions. These experiments indicate that picolinic acid and derivatives should remove zinc and denature various types of zinc finger, zinc ring proteins, or other types of ZF motifs whether known or heretofore undiscovered, including animal or plant viral proteins such as nucleocapsid proteins of retrovirus or the nucleocapsid proteins of Geminivirus. Furthermore, the inventors have determined that any chemical compound, whether known or heretofore undiscovered, that will remove the zinc (or other metal) and denature the proteins or that will form a ternary complex (protein-zinc-chelator) can be effective as an antiviral agent, with nontoxic effects, provided that the agent conforms with certain specific structural requirements.
In general terms: In EMSA bound probe runs differently from free probe, usually more slowly.

Data set [4] has as its system virus-infected host cells (HSV-1, HSV-2, HIV-1, Hepatitis C). Put plainly: Fate of virus-infected host cells after treatment. Format: cell-based. As to conditions: for fate of virus and host cells: HIV-1, Hepatitis C and numerous other viruses. The source says:
Because DnaJ proteins are zinc finger proteins, these proteins can be neutralized and render non-functional by using picolinic acid and derivatives thereof. DnaJ is essential for protein-related cellular functions in both non-infected normal plant and animal cells. […] In contrast, in virally infected cells, picolinic acid and derivatives thereof have pronounced toxic effects which may include suppression of DnaJ proteins. Virally infected cells were killed by picolinic acid and derivatives thereof by apoptosis. In plant cells, this process is denoted as PCD.
APOPTOSIS. Apoptosis is a morphological pattern of cell injury and an important mode of cell death (Robbins, Pathological Basis of Disease, 1999, 6th Ed). Apoptosis shares and overlaps common mechanisms with necrosis. […] This form of cell death is designed to eliminate defective, unwanted and damaged cells. For example, the inventors have shown that cells infected by Herpes Simplex Virus 1 (HSV; labialis) and HSV-2 genitalis are destroyed together with the host cells that they infected by apoptosis when exposed to pyridine carboxylates (Fernandez-Pol, Anticancer Res. 2002). […] Thus, the inventors believes that when host cells of animals or plants are infected by pathogenic viruses, unless the treatment is extremely quickly, the host cells and the virus will be destroyed. In fact, host cells defective, mutated, and reservoirs for the novo synthesis of viruses are unwanted host cells and must be eliminated in many instances to allow the survival of the organism.

In data set [5] the test system is HSV-2. To be noted: in tissue culture and in animals; cited from earlier work.
Data set [6] deals with HSV-1. To be noted: in tissue culture and in animals; cited from earlier work.
In data set [7] the target is T2, Zn(HIV1-F1) zinc finger peptide (N-terminal CCHC region of the HIV-LA1 gag polyprotein) (Human immunodeficiency virus type 1 group M subtype B, UniProt P03348).
T2 construct: corresponds to the N-terminal CCHC region of the HIV-LA1 gag polyprotein (amino acids 390-470); made in house; host or cells: chemical synthesis (synthetic peptide)
Put plainly: NMR studies of ligand binding by a zinc finger peptide from HIV-1. To be noted: for binding to Zn(HIV1-F1): NMR spectroscopy, titration and NOESY. From the text: The interaction between two of the ligands of this invention (Fusaric acid and picolinic acid) and their binding by a Zinc Finger Peptide from HIV-1 containing a zinc finger motif were studied by NMR spectroscopy (FIGS. 16, and 16.1-4).
The peptide sequence […], corresponds to the N-terminal CCHC region of the HIV-LA1 gag polyprotein (amino acids 390-470). The peptide containing the complex of zinc atom bound to the zinc finger domain of the peptide was named: Zn (HIV1-F1).
A synthetic oligonucleotide with sequence corresponding to a region of HIV-1 psi-packaging signal, d (ACGCC) was complexed with the peptide (South and Summers, 1993).Fusaric Acid [[…]] was denoted FSR-488 and picolinic acid [2-pyridine carboxylic acid] was denoted PCL-016. Interactions of FSR-488 and PCL-016 with the zinc finger peptide containing Zn [Zn(HIV1-F1)] were studied by NMR spectroscopy. […] Titration experiments with each of the two molecules caused shifts in the ^1H resonances of Zn(HIV1-F1) that are similar to those observed when the peptide binds analogs of its natural substrate. Two dimensional NOE correlation spectroscopy (NOESY) of the solution containing Zn(HIV1-F1) and FSR-488 gave cross peaks at frequencies that are consistent with contacts between FSR-488 and hydrogen nuclei in the hydrophobic cleft of the peptide.
A sample containing peptide (1.63 mM) and Zn^2+ (2 mM) was titrated with a solution of FSR-488. The experiment was monitored by one dimensional ^1H NMR spectroscopy. Under conditions in which the free zinc in the buffer was minimized, titrations with FSR-488 were conducted. Addition of FSR-488 yielded spectral shifts in the spectrum of the peptide (FIGS. 16, and 16.1-4). […] This experimental finding and conclusions led the inventors to run a second 2D NOESY experiment, this time at the higher concentration of FSR-488.
The NOESY spectrum at the high concentration of [FSR-488]. was considerable different than that measured at low concentrations of [FSR-488]. […] Interpretations for these assignments are presented in detailed below.

The test system of data set [8] is Orobanche ramose. To be noted: Arabidopsis thaliana pre-treated with FU; cited from earlier work.
Data set [9] relates to Common ornamental plant cells infected by viruses. Put plainly: Treatment of virus-infected ornamental plants with antiviral agents. To be noted: viral strains not determined.
Data set [10] deals with Mammalian rotaviruses. To be noted: millimolar concentrations, in vitro; cited from earlier work.
Data set [11] deals with mammalian retroviruses. As to conditions: millimolar concentrations, in vitro; cited from earlier work.
Data set [12] deals with tomato spotted wilt virus. As to conditions: cited from earlier work.
The test system of data set [13] is Arabidopsis thaliana. To be noted: cited from earlier work.
Data set [14] concerns normal cells (NRK, BALB 3T3, WI-348). To be noted: cited from earlier work.
For data set [15], the system named is virally-transformed cells. To be noted: further incubation / longer exposure, all transformed cells; cited from earlier work.
In data set [16] the test system is Rice suspension cells and leaves. As to conditions: cited from earlier work; for hypersensitive response (HR): rice.
Data set [17] deals with normal cells (NRK, BALB 3T3, WI-348). Put plainly: Control of growth by picolinic acid in normal cells. To be noted: normal animal cells.
Description: Cells transformed (made cancerous) by different viruses that contain ZFP respond differently to picolinic acid. […] Numerous transformed cell lines (Fernandez-Pol, Proc. Natl. Acad. Sci. USA, 74:2889-2893, 1977) were exposed to PA and the points of arrest varied. […] Two important facts emerged from studies with transformed cell lines.
In data set [18] the test system is iron incorporation into cells. To be noted: cited from earlier work.
For data set [19], the system named is NRK cells. As to conditions: cells treated with picolinic acid; cited from earlier work.

“Also recorded” adds a separate entry of the source. Read-outs that look alike come from different tables or passages of the source.

Regarding `NC(=O)c1cccnc1` [Nicotinamide], in data set [1] (at 48h), the “effect on cell growth or apoptosis” value is reported as “no effect”. Moreover, the morphology entry in [1] was “flatten”.

With `CCCCc1ccc(C(=O)O)nc1` [Fusaric acid, 5-butyl picolinic acid], in data set [2], the “concentration eliciting plant defense responses without toxic effects” value is given as 100 nM; the “concentration reducing root growth and inducing membrane hyperpolarization then depolarization” value is above 500 µM. Besides, in data set [3], the “removal of zinc from CCCC zinc finger of MPS-1” value is reported as “remove radioactive Zn65; also recorded: remove zinc” and the “zinc dependent binding of recombinant MPS-1 to DNA” value was “inhibit”. Besides, in data set [4], the “fate of virus and host cells” value was “Death by apoptosis”. In addition, the “efficacy against viral infection” value in data set [5] is reported as “effective”. For the same compound, in data set [6], the “efficacy against viral infection” value was “effective”. The “binding to Zn(HIV1-F1)” value in data set [7] is on record as “bind Zn(HIV1-F1) at a hydrophobic cleft”. Besides, the “binding in one dimensional 1H NMR titration” value in data set [7] (peptide 1.63 mM, Zn2+ 2 mM, free zinc minimized) is “competitively binds both Zn^2+ and the Zn^2+/Peptide complex”. For the same compound, the germination of parasite result in data set [8] was “inhibited”. Besides, the “outcome of treatment of virus-infected ornamental plants” value in [9] is “positive results”.

For the compound `O=C(O)CN(CCOCCOCCN(CC(=O)O)CC(=O)O)CC(=O)O` [EGTA], in data set [10], the viral integrity result is reported as “partial disintegration of the viral membranes”. Moreover, in data set [11], the “viral integrity, measured by release of reverse transcriptase” value is given as “partial disintegration of viral membranes”.

Turning to `O=C(O)CN(CCN(CC(=O)O)CC(=O)O)CC(=O)O` [EDTA], in data set [10], the viral integrity result is recorded as “partial disintegration of the viral membranes”. The “viral integrity, measured by release of reverse transcriptase” value in data set [11] is on record as “partial disintegration of viral membranes”.

Regarding `NC(=O)c1ncn([C@@H]2O[C@H](CO)[C@@H](O)[C@H]2O)n1` [Ribavirin], the use against virus result in [12] (tomato and tobacco plants) is on record as “successfully used”. Also, in data set [12] (tomato versus tobacco), the “host in which most efficient” value was “most efficient in tomato plants”.

On to `O=C(O)c1ccccn1` [Picolinic acid, 2-pyridine carboxylic acid], for which the “marker defense genes PR-1, PR-2 and PDF1.2” value in [13] (dose-dependent and time dependent) is “all induced”. For the same compound, the “hypersensitive response (HR)” value in data set [13] (including oxidative burst and cell death) is “induced HR”. Besides, in data set [3], the “removal of zinc from CCCC zinc finger of MPS-1” value is on record as “remove radioactive Zn65; also recorded: remove zinc” and the “zinc dependent binding of recombinant MPS-1 to DNA” value is “inhibit”. The “fate of virus and host cells” value in [4] is on record as “Death by apoptosis”. Moreover, the “fate of virally infected cells” value in data set [4] (virally infected cells) is “killed”. Also, the “phase of cell cycle arrest” value in data set [14] (Normal rat kidney (NRK) cells) is “arrested in G1”. Besides, the “toxicity in normal cells” value in data set [14] was “no toxic effects”. Also, in data set [7], the “binding to Zn(HIV1-F1)” value is recorded as “bind Zn(HIV1-F1) at a hydrophobic cleft”. For the same compound, the “toxicity in transformed cells” value in data set [15] was “cytotoxicity and cell death; also recorded: cell death by apoptosis”. The “outcome of treatment of virus-infected ornamental plants” value in data set [9] is listed as “positive results”. For the same compound, the cell death result in data set [16] (Rice suspension cells and leaves) is on record as “apoptosis”. The “reactive oxygen species (ROS)” value in data set [16] (rice suspension cells, Ca2+-dependent) is reported as “induced reactive oxygen species (ROS)”. Besides, the “hypersensitive response (HR)” value in data set [16] was “elicits hypersensitive-like response”. The “hypersensitive response (HR)” value in data set [16] (listed as Alpha-picolinic acid) is reported as “can elicit the hypersensitive response (HR)”. Moreover, the “suppression of DnaJ-like proteins” value in data set [17] is on record as “did not lead to the suppression”. In [18], the “incorporation of iron into the cells” value is given as “inhibits incorporation of iron” and the “removal of radioiron from the cells” value is given as “effectively removes radioiron”. Further, in data set [1] (3 mM picolinic acid), the mitochondrial effect result was “released cytochrome c”. In addition, the “potency of prostaglandin E1 in elevating cyclic AMP” value in [19] was “two to five times more potent”.
